What was measured:
[1] = system: caspase 8; experiment: Caspase 8 activation (FAM FLICA), U-87 MG; assay type: cell-based, human; conditions: 1.5 μM, 24 h
Procedure: (§1) The activity of caspase 1, caspase 3/7, caspase 8, and caspase 9 was evaluated through the utilisation of FAM FLICA Caspase Assays (ImmunoChemistry Technologies, Bloomington, MN, USA), in accordance with the established protocols. Following treatment with the compounds, the cells were collected at a concentration of 1 × 10^6 cells/mL, washed twice with cold PBS, and resuspended in 290 μL of PBS. The subsequent step involved the addition of 10 μL of 30X FLICA solution, followed by incubation at 37 °C in the absence of light for one hour. Then, 2 ml of Apoptosis Wash Buffer was added, and the samples were washed twice. A 300 μL aliquot of each sample was transferred to a BD FACSCanto II flow cytometer (Becton Dickinson Biosciences, San Jose, CA, USA), where 10,000 events per sample were recorded. The resulting data was then analysed using FACSDiva software, version 6.1.3 (BD Biosciences Systems, San Jose, CA, USA).

[2] = system: T98G; experiment: MTT assay, T98G; assay type: cell-based; conditions: Homo sapiens, 24 h of incubation, read-out: IC50 values ± SEM, MTT assay
Procedure: (§2) Human glioblastoma cell lines (A172 CRL-1620™, U-87 MG HTB-14™, U-118 MG HTB-15™, T98G CRL-1690™) and the mouse astrocyte cell line (C8-D1A CRL-2541™) were obtained from the American Type Culture Collection (ATCC, Manassas, VA, USA). The cell lines were cultured in complete medium: DMEM (Corning, Kennebunk, ME, USA) for C8-D1A and T98G, and EMEM (ATCC, Manassas, VA, USA) for A172, U-87 MG, U118MG. The media were supplemented with 10% foetal bovine serum (Eurx, Gdansk, Poland) and 1% penicillin-streptomycin solution (Corning, Kennebunk, ME, USA). Cells were cultured in cell culture flasks (Sarstedt, Numbrecht, Germany) at 37 °C in 5% CO2. For experiments, cells were washed with phosphate-buffered saline without calcium and magnesium (Corning, Kennebunk, ME, USA) and treated with 0.05% trypsin and 0.02% EDTA (Corning, Kennebunk, ME, USA). Cells were counted using a Sceptre 3.0 cell counter (Merck Millipore, Burlington, MA, USA) prior to seeding into plates. For 6-well plates, 5 x 10^5 cells/mL were seeded, while for 96-well plates (Sarstedt, Numbrecht, Germany), 1 x 10^5 cells/mL were seeded in 100 μL of the medium.
(§3) The cell lines were seeded in 96-well plates and cultured according to the methodology described in the previous section. Cells were then treated with the novel derivatives MM118 and MM119 and the reference compound temozolomide (TMZ) (Sigma-Aldrich, St. Louis, MO, USA) at concentrations of 0.1, 0.25, 0.5, 1.0, 2.5, 5.0, and 10.0 μM for 24 h. The MTT assay was performed using a solution of 3–(4,5-dimethyl-2-thiazolyl)-2,5-diphenyl-2H-tetrazolium bromide (Sigma-Aldrich, St. Louis, MO, USA) at a concentration of 5 mg/mL in phosphate-buffered saline without calcium and magnesium (Corning, Kennebunk, ME, USA). After 24 h incubation with test compounds, 10 μL MTT solution was added to each well, and cells were incubated for another 2 h at 37 °C. The cells were then lysed in 100 μL lysis buffer (25 mM HCl, 2% acetic acid, 3% DMF, and 5% SDS, adjusted to pH 4.7). Absorbance was measured at 570 nm using an Absorbance 96 microplate reader (Byonoy GmbH, Hamburg, Germany).

[3] = Annexin V-FITC/PI apoptosis analysis, U-87 MG; assay type: cell-based, human; conditions: human, U-87 MG cells, read-out: Viable cells
Procedure: (§4) The level of apoptosis induction of the newly synthesised compounds MM118 and MM119 was determined using double staining with Annexin V-FITC and propidium iodide (AV/PI). This method enables the differentiation of four cell populations based on their state: viable cells, necrotic cells, cells in early apoptosis, and late apoptosis. The compounds were analysed on A172 and U-87 MG human glioblastoma multiforme cell lines using concentrations of 1 μM and 1.5 μM over a 24-h exposure period.
(§5) The impact of apoptosis induction by the tested compounds at concentrations of 1 μM and 1.5 μM, as well as by temozolomide at 1.5 μM, was evaluated through annexin V-FITC and propidium iodide (PI) staining with the Apoptosis Detection Kit II (BD Biosciences, San Diego, CA, USA). The glioblastoma cell lines A172 and U-87 MG were then deprived of medium and washed several times with cold phosphate-buffered saline (PBS) solution. The cell suspension was then prepared in the binding buffer provided in the kit at a concentration of 1 × 10^6 cells/mL. From each sample, 100 μL of the cell suspension was transferred to tubes and subsequently treated with 5 μL of Annexin V-FITC and 5 μL of propidium iodide (PI). The tubes were then incubated for 15 min at room temperature in the dark. Following the incubation period, 400 μL of binding buffer was added to each sample, after which the samples were immediately analysed using a BD FACSCanto II flow cytometer (Becton Dickinson Biosciences, San Jose, CA, USA), with 10,000 events recorded per sample. The results were then analysed using FACSDiva Software Version 6.1.3 (BD Biosciences Systems, San Jose, CA, USA).

[4] = system: U-87 MG; experiment: Annexin V-FITC/PI apoptosis analysis, U-87 MG; assay type: cell-based, human; conditions: 1.5 μM, 24 h
Procedure: as §4, §5

[5] = system: caspase 8; experiment: Caspase 8 activation (FAM FLICA), A172; assay type: cell-based, human; conditions: A172, 1.5 μM, 24 h
Procedure: as §1

[6] = system: caspase 1; experiment: Caspase 1 activation (FAM FLICA), A172; assay type: cell-based, human; conditions: 24 h
Procedure: (§6) Given the activation of oxidative stress and the occurrence of apoptotic cell death, we decided to verify whether other cell death pathways are triggered. The level of pyroptosis induction of the newly synthesised compounds MM118 and MM119 was determined by assessing the activation of caspase 1. This method facilitates the identification of cells undergoing pyroptosis by detecting the active form of caspase 1, which is a pivotal mediator in the pyroptotic pathway. The tested compounds were analysed on human A172 and U-87 MG glioblastoma multiforme cell lines using concentrations of 1 μM and 1.5 μM for a period of 24 h. […] Conversely, for compound MM119 in line A172, caspase 1 activation was 12.35 ± 2.00% at a concentration of 1 μM and 21.30 ± 1.57% at a concentration of 1.5 μM. For the U-87 MG line, the values were 12.25 ± 2.16% and 24.50 ± 2.11%, respectively.
as §1

[7] = system: C8-D1A; experiment: MTT assay, C8-D1A astrocytes; assay type: cell-based; conditions: C8-D1A mouse astrocytes, 24 h of incubation; read-out: IC50 values ± SEM, MTT assay
Procedure: as §2, §3

[8] = system: caspase 1; experiment: Caspase 1 activation (FAM FLICA), U-87 MG; assay type: cell-based, human; conditions: 24 h
Procedure: as §6, §1

Structure (SMILES) | Active caspase 8 (cell population) [1] | IC50 [2] [µM] | viability at 24 h, 1 µM [3] [%] | viability at 24 h, 1.5 µM [3] [%] | Early apoptotic cells [4] [%] | Late apoptotic cells [4] [%] | Necrotic cells [4] [%] | Active caspase 8 (cell population) [5] | Active caspase 1 (cell population) ([6]; A172, 1.0 μM) [%] | Active caspase 1 (cell population) ([6]; A172, 1.5 μM) | IC50 [7] [µM] | Active caspase 1 (cell population) ([8]; 1.0 μM) [%] | Active caspase 1 (cell population) ([8]; 1.5 μM) | Viable cells [4] [%]
CCC(CO)NS(=O)(=O)c1ccc(-n2nc(C)c3nc4nnnn4nc32)cc1 (stereo in doubt) [MM119, N-(S)-(1-hydroxy-but-2-yl)-4-[7-methyl-5H-pyrazolo[4,3-e]tetrazolo[1,5-b][1]^,[2]^,[4]triazin-5-yl)]benzenesulfonamide] | 69.15 ± 6.30% | 4.41 ± 1.19 | 85.4 | 50.5 ± 7.23 | 10.18 ± 4.45 | 37.40 ± 6.20 | 1.95 ± 1.42 | 34.35 ± 7.58% | 12.35 ± 2.00 | 21.30 ± 1.57% | 2.25 ± 0.294 | 12.25 ± 2.16 | 24.50 ± 2.11% | –
Cn1nnc2c(C(N)=O)ncn2c1=O [TMZ, temozolomide, reference compound] | No significant statistical differences | > 10 | – | 93.4 | 3.40 ± 1.63 | 4.73 ± 0.64 | 0.25 ± 0.24 | No significant statistical differences | – | no significant differences | > 10 | – | no significant differences | 91.65 ± 1.58
CCC(CO)NS(=O)(=O)c1ccc(-n2nc(C)c3nc4nnnn4nc32)cc1 (stereo in doubt) [MM118, N-(R)-(1-hydroxy-but-2-yl)-4-[7-methyl-5H-pyrazolo[4,3-e]tetrazolo[1,5-b][1]^,[2]^,[4]triazin-5-yl)]benzenesulfonamide] | 73.65 ± 3.76% | 2.44 ± 0.393 | 76.2 | 48.8 ± 3.9 | 10.28 ± 4.08 | 38.73 ± 4.09 | 2.30 ± 1.81 | 42.85 ± 5.36% | 12.10 ± 1.69 | 20.38 ± 1.75% | 2.19 ± 0.34 | 17.15 ± 1.81 | 26.65 ± 2.28% | –
